Experiments:
[1] = molecular target: T1, full-length p75^NTR in COS cells (Rattus norvegicus, UniProt P07174); assay: Live cell homo-FRET anisotropy, wild-type p75NTR; type: cell-based; parameters: key to average anisotropy change, wt: fold change vs mean of 6 pre-treatment time points (baseline ≈ 100); conditions: for average anisotropy change, wt: 10 μM
T1 construct: COS cells expressing full length, GFP-tagged rat p75^NTR; expressed in transfected cells; host or cells: COS-7
T1 sequence (P07174 30-425): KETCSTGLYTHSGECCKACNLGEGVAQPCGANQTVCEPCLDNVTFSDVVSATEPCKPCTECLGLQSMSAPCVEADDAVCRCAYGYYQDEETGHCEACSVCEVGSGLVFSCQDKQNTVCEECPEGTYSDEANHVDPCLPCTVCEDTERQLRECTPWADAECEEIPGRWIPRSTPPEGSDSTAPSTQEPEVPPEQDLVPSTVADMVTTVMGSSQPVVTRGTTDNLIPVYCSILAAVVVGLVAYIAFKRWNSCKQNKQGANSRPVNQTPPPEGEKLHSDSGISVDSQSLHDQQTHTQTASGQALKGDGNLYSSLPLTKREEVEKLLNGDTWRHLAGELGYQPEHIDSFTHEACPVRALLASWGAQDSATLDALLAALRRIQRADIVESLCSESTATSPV
Source text: Previous real-time homo-FRET anisotropy studies by ours as well as other laboratories have shown that the intracellular death domains of p75^NTR are associated with each other (high FRET, low anisotropy state) under basal conditions (Vilar et al, [2009]; Sykes et al, [2012]), but neurotrophin binding induces transient separation of p75^NTR death domains (low FRET, high anisotropy state) manifested as oscillations in real-time anisotropy measurements (Lin et al, [2015]; Tanaka et al, [2016]; Goh et al, [2018]). COS cells expressing full length, GFP-tagged rat p75^NTR were treated with vehicle or Div17E5 and changes in anisotropy levels were recorded over time.
Anisotropy imaging in COS-7 cells that were transfected with a rat p75^NTR-EGFP* fusion construct was done as previously described (Goh, Lin et al, [2018]). EGFP* carries a […] mutation rendering monomeric EGFP. Changes in anisotropy were expressed as fold change at each time point (every 30 s) in comparison to the mean of 6 time points obtained prior to addition of treatment. Images were acquired using Nikon Ti-E based live cell epi-fluorescence microscope and MetaMorph software and analyzed using MatLab from Mathworks.

[2] = mouse, in vivo
p75^NTR TMD = p75^NTR TMD (Homo sapiens, UniProt P08138); assay: 2D NMR (1H-15N TROSY-HSQC) chemical shift perturbation, p75NTR TMD in bicelles; conditions: 4 molar excess compound
[3] = molecular target: T2, fascin/p75^NTR interaction (Homo sapiens, UniProt P08138); assay: Co-immunoprecipitation of fascin with p75NTR in A875 cells; type: cell-based; conditions: 1 μM; NGF 100 ng/ml
T2 construct: endogenous in cells; host or cells: A875-NT (and A875 sh-p75NTR knock-down control)
T2 sequence (P08138 29-427): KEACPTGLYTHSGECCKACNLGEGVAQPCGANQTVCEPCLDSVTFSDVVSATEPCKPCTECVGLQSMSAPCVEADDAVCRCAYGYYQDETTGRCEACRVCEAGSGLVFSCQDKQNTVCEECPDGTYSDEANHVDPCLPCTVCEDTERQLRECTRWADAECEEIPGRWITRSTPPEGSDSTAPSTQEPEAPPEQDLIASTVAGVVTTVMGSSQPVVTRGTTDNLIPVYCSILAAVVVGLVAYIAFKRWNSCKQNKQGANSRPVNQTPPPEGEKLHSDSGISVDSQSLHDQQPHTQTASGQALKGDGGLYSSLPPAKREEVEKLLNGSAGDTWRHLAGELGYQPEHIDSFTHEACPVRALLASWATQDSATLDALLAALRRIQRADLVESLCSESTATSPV
Experimental: For co-immunoprecipitation analysis of p75^NTR/fascin interactions, A875 sh-p75^NTR and A875-NT cells were plated in a 10 cm tissue culture dish at a confluency of 3 × 10^6 cells/dish in normal growth media. Twenty-four hours after plating, the cells were treated with 1 μM 4A22 and NGF (100 ng/ml) for 12 h prior to harvest and lysis in lysis buffer (50 mM Tris/HCl pH 7.5, 1 mM EDTA, 270 mM Sucrose, 1% (v/v) Triton X-100, 0.1% (v/v) 2-mercaptoethanol and 60 mM n-Octyl-β-D glucopyranoside) containing protease inhibitor cocktail. The cellular extracts were then centrifuged at 4 °C top speed on a benchtop centrifuge for 1 min and the supernatant was collected. For immunoprecipitation, A875 cell extracts were incubated for 16 h at 4 °C on a rotating wheel with 0.8 μg of anti-p75^NTR antibody (ANT-007, Alomone) and then incubated with Sepharose protein-G beads (GE Healthcare). The beads were collected by brief centrifugation (2 min, 2500 rpm, 4 °C), washed three times with 1 ml of Wash Buffer (with composition same as the lysis buffer). After the last wash, pelleted beads were aspirated off the wash buffer followed by addition of Laemmli sample buffer and analysis by SDS–PAGE followed by Western Blot using anti-fascin antibody (MA5-11483, Invitrogen).

## Oc1ccc(-c2cncc(Nc3ccc(Br)c(Cl)c3)n2)cc1 [Div17E5]
[1]; 10 µM
  real-time homo-FRET anisotropy: induced oscillations in real-time anisotropy
[1]; 0 min after compound addition
  average anisotropy change, wt: 106
[1]; 0.5 min after compound addition
  average anisotropy change, wt: 88
[1]; 1 min after compound addition
  average anisotropy change, wt: 110
[1]; 1.5 min after compound addition
  average anisotropy change, wt: 101
[1]; 2 min after compound addition
  average anisotropy change, wt: 115
[1]; 2.5 min after compound addition
  average anisotropy change, wt: 82
[1]; 3 min after compound addition
  average anisotropy change, wt: 112
[1]; 3.5 min after compound addition
  average anisotropy change, wt: 105
[1]; 4 min after compound addition
  average anisotropy change, wt: 80
[1]; 4.5 min after compound addition
  average anisotropy change, wt: 111
[1]; 5 min after compound addition
  average anisotropy change, wt: 83
[1]; 5.5 min after compound addition
  average anisotropy change, wt: 99
[1]; 6 min after compound addition
  average anisotropy change, wt: 121
[1]; 6.5 min after compound addition
  average anisotropy change, wt: 122
[1]; 7 min after compound addition
  average anisotropy change, wt: 100
[1]; 7.5 min after compound addition
  average anisotropy change, wt: 100
[1]; 8 min after compound addition
  average anisotropy change, wt: 74
[1]; 8.5 min after compound addition
  average anisotropy change, wt: 96
[1]; 9 min after compound addition
  average anisotropy change, wt: 96
[1]; 9.5 min after compound addition
  average anisotropy change, wt: 103
[1]; 10 min after compound addition
  average anisotropy change, wt: 99
[1]; 10.5 min after compound addition
  average anisotropy change, wt: 110
[1]; 11 min after compound addition
  average anisotropy change, wt: 95
[1]; 11.5 min after compound addition
  average anisotropy change, wt: 89
[1]; 12 min after compound addition
  average anisotropy change, wt: 110
[1]; 12.5 min after compound addition
  average anisotropy change, wt: 95
[1]; 13 min after compound addition
  average anisotropy change, wt: 108
[1]; 13.5 min after compound addition
  average anisotropy change, wt: 110
[1]; 14 min after compound addition
  average anisotropy change, wt: 100
[1]; 14.5 min after compound addition
  average anisotropy change, wt: 105
[1]; 15 min after compound addition
  average anisotropy change, wt: 94
[1]; -0.5 min after compound addition
  average anisotropy change, wt: 104
[1]; -1 min after compound addition
  average anisotropy change, wt: 103
[1]; -1.5 min after compound addition
  average anisotropy change, wt: 97
[1]; -2 min after compound addition
  average anisotropy change, wt: 101
[1]; -2.5 min after compound addition
  average anisotropy change, wt: 97
[1]; -3 min after compound addition
  average anisotropy change, wt: 98

## Cc1cccc(-c2cncc(Nc3ccc(Br)c(Cl)c3Cl)n2)c1C [Np75-4A22]
[2]
  single dose toxicity: No mortality or abnormal clinical signs
p75^NTR TMD
  chemical shift perturbations, p75NTR TMD: Significant chemical shifts
[3]
  NGF-stimulated fascin/p75NTR interaction: completely suppressed the effect of NGF

— article PMC12514245, “Impaired migration and lung invasion of human melanoma by a novel small molecule targeting the transmembrane domain of death receptor p75^NTR” (EMBO Molecular Medicine, 2025)
